Source: patent US20100010219A1, “METHOD FOR PRODUCING PYRROLIDINE COMPOUND” (JAPAN TOBACCO INC., priority 2006, published 2010)
Where a name gives a salt, the structure may show the parent alone.

Each compound was assayed against T1, human HSD-1 (recombinant HSD-1) (Homo sapiens, UniProt P28845) (assay: HSD-1 activity inhibitory action in vitro (SPA, conversion of cortisone to cortisol)). Settings: not given.
T1 construct: made in house
T1 sequence (P28845 whole entry): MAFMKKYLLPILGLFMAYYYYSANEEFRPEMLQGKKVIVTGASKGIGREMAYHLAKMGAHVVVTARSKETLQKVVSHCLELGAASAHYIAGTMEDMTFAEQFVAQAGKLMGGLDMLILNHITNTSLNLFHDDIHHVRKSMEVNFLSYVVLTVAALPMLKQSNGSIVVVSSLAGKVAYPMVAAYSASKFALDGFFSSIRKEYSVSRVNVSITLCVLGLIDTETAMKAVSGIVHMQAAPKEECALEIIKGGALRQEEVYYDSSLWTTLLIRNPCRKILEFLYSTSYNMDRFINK
Format: biochemical
With O=C1CCN(C(=O)N2CCC(n3ncc(C(=O)N4CC[C@@H](c5ccccc5C(F)(F)F)C4)c3C3CC3)CC2)CC1 [Example 44, 1-{5-cyclopropyl-1-[1-(4-oxopiperidine-1-carbonyl)piperidin-4-yl]-1H-pyrazole-4-carbonyl}-[(S)-3-(2-trifluoromethylphenyl)]pyrrolidine] the IC50 was < 30 nM.

Same assay, conditions: recombinant human HSD-1 expressed using baculovirus system; 10 nM 3H cortisone, 500 μM NADPH; room temperature 90 to 120 min; read-out: hHSD1 (IC50 (nM))
With O=C(c1cnn(C2CCN(C(=O)N3CC(CO)C3)CC2)c1C1CC1)N1CC[C@@H](c2ccccc2C(F)(F)F)C1 [Example 28, 1-{5-cyclopropyl-1-[1-(3-hydroxymethylazetidine-1-carbonyl)piperidin-4-yl]-1H-pyrazole-4-carbonyl}-[(S)-3-(2-trifluoromethylphenyl)]pyrrolidine] the IC50 was < 30 nM.
In the case of CN1CCN(C(=O)N2CCC(n3ncc(C(=O)N4CC[C@@H](c5ccccc5C(F)(F)F)C4)c3C3CC3)CC2)CC1 [Example 29, 1-{5-cyclopropyl-1-[1-(4-methylpiperazine-1-carbonyl)piperidin-4-yl]-1H-pyrazole-4-carbonyl}-[(S)-3-(2-trifluoromethylphenyl)]pyrrolidine hydrochloride], the IC50 is reported as < 30 nM.
With CC(C)N1CCN(C(=O)N2CCC(n3ncc(C(=O)N4CC[C@@H](c5ccccc5C(F)(F)F)C4)c3C3CC3)CC2)CC1 [Example 30, 1-{5-cyclopropyl-1-[1-(4-isopropylpiperazine-1-carbonyl)piperidin-4-yl]-1H-pyrazole-4-carbonyl}-[(S)-3-(2-trifluoromethylphenyl)]pyrrolidine hydrochloride] the IC50 was < 30 nM.
For CC(=O)N1CCN(C(=O)N2CCC(n3ncc(C(=O)N4CC[C@@H](c5ccccc5C(F)(F)F)C4)c3C3CC3)CC2)CC1 [Example 31, 1-{1-[1-(4-acetylpiperazine-1-carbonyl)piperidin-4-yl]-5-cyclopropyl-1H-pyrazole-4-carbonyl}-[(S)-3-(2-trifluoromethylphenyl)]pyrrolidine], the IC50 was < 30 nM.
In the case of O=C(c1cnn(C2CCN(C(=O)N3CCC[C@@H](O)C3)CC2)c1C1CC1)N1CC[C@@H](c2ccccc2C(F)(F)F)C1 [Example 32, 1-(5-cyclopropyl-1-{1-[(R)-3-hydroxypiperidine-1-carbonyl]piperidin-4-yl}-1H-pyrazole-4-carbonyl)-[(S)-3-(2-trifluoromethylphenyl)]pyrrolidine], the IC50 is reported as < 30 nM.
With NC(=O)C1CCN(C(=O)N2CCC(n3ncc(C(=O)N4CC[C@@H](c5ccccc5C(F)(F)F)C4)c3C3CC3)CC2)CC1 [Example 33, 1-{1-[1-(4-carbamoylpiperidine-1-carbonyl)piperidin-4-yl]-5-cyclopropyl-1H-pyrazole-4-carbonyl}-[(S)-3-(2-trifluoromethylphenyl)]pyrrolidine] the IC50 was < 30 nM.
With NC(=O)C1CN(C(=O)N2CCC(n3ncc(C(=O)N4CC[C@@H](c5ccccc5C(F)(F)F)C4)c3C3CC3)CC2)C1 [Example 34, 1-{1-[1-(3-carbamoylazetidine-1-carbonyl)piperidin-4-yl]-5-cyclopropyl-1H-pyrazole-4-carbonyl}-[(S)-3-(2-trifluoromethylphenyl)]pyrrolidine] the IC50 was < 30 nM.
For NC1CCN(C(=O)N2CCC(n3ncc(C(=O)N4CC[C@@H](c5ccccc5C(F)(F)F)C4)c3C3CC3)CC2)CC1 [Example 35, 1-{1-[1-(4-aminopiperidine-1-carbonyl)piperidin-4-yl]-5-cyclopropyl-1H-pyrazole-4-carbonyl}-[(S)-3-(2-trifluoromethylphenyl)]pyrrolidine hydrochloride], the IC50 was < 30 nM.
For NC1CCN(C(=O)N2CCC(n3ncc(C(=O)N4CC[C@@H](c5ccccc5C(F)(F)F)C4)c3C3CC3)CC2)C1 (stereo partly drawn) [Example 36, 1-{1-[1-(3-aminopyrrolidine-1-carbonyl)piperidin-4-yl]-5-cyclopropyl-1H-pyrazole-4-carbonyl}-[(S)-3-(2-trifluoromethylphenyl)]pyrrolidine hydrochloride], the IC50 was < 30 nM.
In the case of O=C(NC1CCNCC1)N1CCC(n2ncc(C(=O)N3CC[C@@H](c4ccccc4C(F)(F)F)C3)c2C2CC2)CC1 [Example 37, 1-{5-cyclopropyl-1-[1-(piperidin-4-yl-carbamoyl)piperidin-4-yl]-1H-pyrazole-4-carbonyl}-[(S)-3-(2-trifluoromethylphenyl)]pyrrolidine hydrochloride], the IC50 is reported as < 30 nM.
CC(=O)NC1CCN(C(=O)N2CCC(n3ncc(C(=O)N4CC[C@@H](c5ccccc5C(F)(F)F)C4)c3C3CC3)CC2)CC1 [Example 39, 1-{1-[1-(4-acetylaminopiperidine-1-carbonyl)piperidin-4-yl]-5-cyclopropyl-1H-pyrazole-4-carbonyl}-[(S)-3-(2-trifluoromethylphenyl)]pyrrolidine] was tested, and the IC50 was < 30 nM.
With CC(=O)NC1CCN(C(=O)N2CCC(n3ncc(C(=O)N4CC[C@@H](c5ccccc5C(F)(F)F)C4)c3C3CC3)CC2)C1 (stereo partly drawn) [Example 40, 1-{1-[1-(3-acetylaminopyrrolidine-1-carbonyl)piperidin-4-yl]-5-cyclopropyl-1H-pyrazole-4-carbonyl}-[(S)-3-(2-trifluoromethylphenyl)]pyrrolidine] the IC50 was < 30 nM.
With CN(C)C1CCN(C(=O)N2CCC(n3ncc(C(=O)N4CC[C@@H](c5ccccc5C(F)(F)F)C4)c3C3CC3)CC2)C1 (stereo partly drawn) [Example 41, 1-{5-cyclopropyl-1-[1-(3-dimethylaminopyrrolidine-1-carbonyl)piperidin-4-yl]-1H-pyrazole-4-carbonyl}-[(S)-3-(2-trifluoromethylphenyl)]pyrrolidine hydrochloride] the IC50 was < 30 nM.
CN1CCC(NC(=O)N2CCC(n3ncc(C(=O)N4CC[C@@H](c5ccccc5C(F)(F)F)C4)c3C3CC3)CC2)CC1 [Example 42, 1-{5-cyclopropyl-1-[1-(1-methylpiperidin-4-yl-carbamoyl)piperidin-4-yl]-1H-pyrazole-4-carbonyl}-[(S)-3-(2-trifluoromethylphenyl)]pyrrolidine hydrochloride] was tested, and the IC50 was < 30 nM.
In the case of CC(=O)N1CCC(NC(=O)N2CCC(n3ncc(C(=O)N4CC[C@@H](c5ccccc5C(F)(F)F)C4)c3C3CC3)CC2)CC1 [Example 43, 1-{1-[1-(1-acetylpiperidin-4-yl-carbamoyl)piperidin-4-yl]-5-cyclopropyl-1H-pyrazole-4-carbonyl}-[(S)-3-(2-trifluoromethylphenyl)]pyrrolidine], the IC50 is reported as < 30 nM.
CC(=O)NC1CN(C(=O)N2CCC(n3ncc(C(=O)N4CC[C@@H](c5ccccc5C(F)(F)F)C4)c3C3CC3)CC2)C1 [Example 45, 1-{1-[1-(3-acetylaminoazetidine-1-carbonyl)piperidin-4-yl]-5-cyclopropyl-1H-pyrazole-4-carbonyl}-[(S)-3-(2-trifluoromethylphenyl)]pyrrolidine] was tested, and the IC50 was < 30 nM.
O=C(NCC(F)(F)F)N1CCC(n2ncc(C(=O)N3CC[C@@H](c4ccccc4C(F)(F)F)C3)c2C2CC2)CC1 [Example 47, 1-{5-cyclopropyl-1-[1-(2,2,2-trifluoroethylcarbamoyl)piperidin-4-yl]-1H-pyrazole-4-carbonyl}-[(S)-3-(2-trifluoromethylphenyl)]pyrrolidine] was tested, and the IC50 was < 30 nM.
For O=C(c1cnn(C2CCN(C(=O)N3CC(F)(F)C(F)(F)C3)CC2)c1C1CC1)N1CC[C@@H](c2ccccc2C(F)(F)F)C1 [Example 48, 1-{5-cyclopropyl-1-[1-(3,3,4,4-tetrafluoropyrrolidine-1-carbonyl)piperidin-4-yl]-1H-pyrazole-4-carbonyl}-[(S)-3-(2-trifluoromethylphenyl)]pyrrolidine], the IC50 was < 30 nM.
For CC(C)[C@@H](CO)NC(=O)N1CCC(n2ncc(C(=O)N3CC[C@@H](c4ccccc4C(F)(F)F)C3)c2C2CC2)CC1 [Example 49, 1-(5-cyclopropyl-1-{1-[(S)-1-hydroxymethyl-2-methylpropylcarbamoyl]piperidin-4-yl}-1H-pyrazole-4-carbonyl)-[(S)-3-(2-trifluoromethylphenyl)]pyrrolidine], the IC50 was < 30 nM.
In the case of O=C(N[C@H](CO)Cc1ccccc1)N1CCC(n2ncc(C(=O)N3CC[C@@H](c4ccccc4C(F)(F)F)C3)c2C2CC2)CC1 [Example 50, 1-(1-{1-[(S)-1-benzyl-2-hydroxyethylcarbamoyl]piperidin-4-yl}-5-cyclopropyl-1H-pyrazole-4-carbonyl)-[(S)-3-(2-trifluoromethylphenyl)]pyrrolidine], the IC50 is reported as < 30 nM.
For O=C(N[C@H](CO)c1ccccc1)N1CCC(n2ncc(C(=O)N3CC[C@@H](c4ccccc4C(F)(F)F)C3)c2C2CC2)CC1 [Example 51, 1-(5-cyclopropyl-1-{1-[(S)-2-hydroxy-1-phenylethylcarbamoyl]piperidin-4-yl}-1H-pyrazole-4-carbonyl)-[(S)-3-(2-trifluoromethylphenyl)]pyrrolidine], the IC50 was < 30 nM.
In the case of CC(C)C[C@@H](CO)NC(=O)N1CCC(n2ncc(C(=O)N3CC[C@@H](c4ccccc4C(F)(F)F)C3)c2C2CC2)CC1 [Example 52, 1-(5-cyclopropyl-1-{1-[(S)-1-hydroxymethyl-3-methylbutylcarbamoyl]piperidin-4-yl}-1H-pyrazole-4-carbonyl)-[(S)-3-(2-trifluoromethylphenyl)]pyrrolidine], the IC50 is reported as < 30 nM.
For O=C(Nc1ccccc1O)N1CCC(n2ncc(C(=O)N3CC[C@@H](c4ccccc4C(F)(F)F)C3)c2C2CC2)CC1 [Example 53, 1-{5-cyclopropyl-1-[1-(2-hydroxyphenylcarbamoyl)piperidin-4-yl]-1H-pyrazole-4-carbonyl}-[(S)-3-(2-trifluoromethylphenyl)]pyrrolidine], the IC50 was < 30 nM.
With O=C(NC1(CO)CCCC1)N1CCC(n2ncc(C(=O)N3CC[C@@H](c4ccccc4C(F)(F)F)C3)c2C2CC2)CC1 [Example 54, 1-{5-cyclopropyl-1-[1-(1-hydroxymethylcyclopentylcarbamoyl)piperidin-4-yl]-1H-pyrazole-4-carbonyl}-[(S)-3-(2-trifluoromethylphenyl)]pyrrolidine] the IC50 was < 30 nM.
For O=C(NS(=O)(=O)c1ccccc1)N1CCC(n2ncc(C(=O)N3CC[C@@H](c4ccccc4C(F)(F)F)C3)c2C2CC2)CC1 [Example 55, 1-[1-(1-benzenesulfonylaminocarbonylpiperidin-4-yl)-5-cyclopropyl-1H-pyrazole-4-carbonyl]-[(S)-3-(2-trifluoromethylphenyl)]pyrrolidine], the IC50 was < 30 nM.
